≈ marks a conversion by molar mass, not a printed value.
Columns and labels:
[1] = Tmax in Sprague-Dawley rat at 10 umol/kg, po; type: ADME, organism-based; conditions: in vivo
[2] = Volume of distribution at steady state in Sprague-Dawley rat at 3 umol/kg, iv; type: ADME, organism-based; conditions: in vivo, read-out: Vdss
[3] = system: Rattus norvegicus; assay: Dose normalized AUC in Sprague-Dawley rat at 3 umol/kg, iv; type: ADME, organism-based; conditions: in vivo
[4] = Clearance in Sprague-Dawley rat at 3 umol/kg, iv; type: ADME, organism-based; conditions: in vivo
[5] = system: Rattus norvegicus; assay: Dose normalized AUC in Sprague-Dawley rat at 10 umol/kg, po; type: ADME, organism-based; conditions: in vivo
[6] = molecular target: Sodium channel protein type 5 subunit alpha (Homo sapiens, UniProt Q14524); assay: Inhibition of Nav1.5 by cell based whole-cell voltage clamp electrophysiology assay
Sodium channel protein type 5 subunit alpha, sequence (Q14524 whole entry): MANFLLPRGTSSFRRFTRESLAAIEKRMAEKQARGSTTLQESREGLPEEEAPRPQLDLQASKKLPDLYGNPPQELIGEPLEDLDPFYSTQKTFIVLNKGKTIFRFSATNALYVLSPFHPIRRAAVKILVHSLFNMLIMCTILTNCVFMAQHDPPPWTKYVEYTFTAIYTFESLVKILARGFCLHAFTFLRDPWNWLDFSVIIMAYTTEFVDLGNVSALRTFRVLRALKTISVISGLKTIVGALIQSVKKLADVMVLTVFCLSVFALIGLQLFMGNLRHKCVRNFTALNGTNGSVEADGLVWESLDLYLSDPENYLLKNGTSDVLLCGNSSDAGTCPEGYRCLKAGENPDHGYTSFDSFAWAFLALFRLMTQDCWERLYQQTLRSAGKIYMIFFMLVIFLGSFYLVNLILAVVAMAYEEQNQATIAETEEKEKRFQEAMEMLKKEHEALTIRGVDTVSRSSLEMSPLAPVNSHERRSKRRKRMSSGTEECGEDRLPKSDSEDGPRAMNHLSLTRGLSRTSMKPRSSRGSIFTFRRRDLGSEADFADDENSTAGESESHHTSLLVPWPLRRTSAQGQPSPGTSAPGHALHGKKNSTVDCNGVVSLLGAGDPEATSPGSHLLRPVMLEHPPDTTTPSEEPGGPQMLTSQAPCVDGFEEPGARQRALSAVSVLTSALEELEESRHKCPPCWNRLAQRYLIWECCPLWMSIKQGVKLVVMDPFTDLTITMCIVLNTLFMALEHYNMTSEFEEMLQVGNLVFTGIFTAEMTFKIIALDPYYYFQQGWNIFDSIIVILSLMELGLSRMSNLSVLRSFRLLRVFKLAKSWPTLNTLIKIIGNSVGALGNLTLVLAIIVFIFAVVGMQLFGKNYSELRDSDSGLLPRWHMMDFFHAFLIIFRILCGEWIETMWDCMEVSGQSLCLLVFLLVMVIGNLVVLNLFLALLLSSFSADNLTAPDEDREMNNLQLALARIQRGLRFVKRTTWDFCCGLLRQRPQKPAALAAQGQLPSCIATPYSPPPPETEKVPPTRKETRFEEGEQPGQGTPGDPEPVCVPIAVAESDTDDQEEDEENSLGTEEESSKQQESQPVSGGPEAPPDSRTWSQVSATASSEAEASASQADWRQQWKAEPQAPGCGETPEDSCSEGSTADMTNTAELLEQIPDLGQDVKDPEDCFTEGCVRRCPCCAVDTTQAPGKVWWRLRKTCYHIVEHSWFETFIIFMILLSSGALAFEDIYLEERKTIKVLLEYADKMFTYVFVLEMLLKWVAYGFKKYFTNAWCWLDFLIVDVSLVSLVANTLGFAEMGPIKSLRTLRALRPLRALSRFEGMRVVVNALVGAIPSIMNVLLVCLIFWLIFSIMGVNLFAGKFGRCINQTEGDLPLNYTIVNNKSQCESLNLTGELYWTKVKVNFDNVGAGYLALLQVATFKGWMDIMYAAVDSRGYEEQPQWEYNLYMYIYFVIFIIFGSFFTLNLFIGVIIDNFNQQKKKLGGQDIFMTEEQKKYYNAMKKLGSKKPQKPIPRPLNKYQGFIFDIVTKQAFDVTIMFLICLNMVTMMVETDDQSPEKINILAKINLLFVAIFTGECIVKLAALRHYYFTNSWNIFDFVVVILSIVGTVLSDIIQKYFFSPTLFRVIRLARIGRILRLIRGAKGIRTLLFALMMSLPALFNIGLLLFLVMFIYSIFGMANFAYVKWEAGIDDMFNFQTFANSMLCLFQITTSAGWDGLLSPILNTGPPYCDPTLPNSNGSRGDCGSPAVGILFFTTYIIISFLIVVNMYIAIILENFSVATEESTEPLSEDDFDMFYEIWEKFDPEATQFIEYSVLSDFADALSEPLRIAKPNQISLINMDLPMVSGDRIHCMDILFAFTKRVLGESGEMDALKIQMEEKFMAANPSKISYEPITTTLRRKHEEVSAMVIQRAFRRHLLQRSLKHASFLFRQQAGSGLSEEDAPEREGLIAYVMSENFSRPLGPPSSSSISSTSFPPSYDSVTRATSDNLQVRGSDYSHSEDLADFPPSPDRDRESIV

[7] = Terminal half life in Sprague-Dawley rat at 3 umol/kg, iv; type: ADME, organism-based; conditions: in vivo, read-out: beta t1/2 (converted)
[8] = Oral bioavailability in Sprague-Dawley rat at 10 umol/kg; type: ADME, organism-based; conditions: in vivo
[9] = molecular target: Sodium channel protein type 9 subunit alpha (Homo sapiens, UniProt Q15858); assay: Inhibition of Nav1.7 by cell based whole-cell voltage clamp electrophysiology assay
Sodium channel protein type 9 subunit alpha, sequence (Q15858 whole entry): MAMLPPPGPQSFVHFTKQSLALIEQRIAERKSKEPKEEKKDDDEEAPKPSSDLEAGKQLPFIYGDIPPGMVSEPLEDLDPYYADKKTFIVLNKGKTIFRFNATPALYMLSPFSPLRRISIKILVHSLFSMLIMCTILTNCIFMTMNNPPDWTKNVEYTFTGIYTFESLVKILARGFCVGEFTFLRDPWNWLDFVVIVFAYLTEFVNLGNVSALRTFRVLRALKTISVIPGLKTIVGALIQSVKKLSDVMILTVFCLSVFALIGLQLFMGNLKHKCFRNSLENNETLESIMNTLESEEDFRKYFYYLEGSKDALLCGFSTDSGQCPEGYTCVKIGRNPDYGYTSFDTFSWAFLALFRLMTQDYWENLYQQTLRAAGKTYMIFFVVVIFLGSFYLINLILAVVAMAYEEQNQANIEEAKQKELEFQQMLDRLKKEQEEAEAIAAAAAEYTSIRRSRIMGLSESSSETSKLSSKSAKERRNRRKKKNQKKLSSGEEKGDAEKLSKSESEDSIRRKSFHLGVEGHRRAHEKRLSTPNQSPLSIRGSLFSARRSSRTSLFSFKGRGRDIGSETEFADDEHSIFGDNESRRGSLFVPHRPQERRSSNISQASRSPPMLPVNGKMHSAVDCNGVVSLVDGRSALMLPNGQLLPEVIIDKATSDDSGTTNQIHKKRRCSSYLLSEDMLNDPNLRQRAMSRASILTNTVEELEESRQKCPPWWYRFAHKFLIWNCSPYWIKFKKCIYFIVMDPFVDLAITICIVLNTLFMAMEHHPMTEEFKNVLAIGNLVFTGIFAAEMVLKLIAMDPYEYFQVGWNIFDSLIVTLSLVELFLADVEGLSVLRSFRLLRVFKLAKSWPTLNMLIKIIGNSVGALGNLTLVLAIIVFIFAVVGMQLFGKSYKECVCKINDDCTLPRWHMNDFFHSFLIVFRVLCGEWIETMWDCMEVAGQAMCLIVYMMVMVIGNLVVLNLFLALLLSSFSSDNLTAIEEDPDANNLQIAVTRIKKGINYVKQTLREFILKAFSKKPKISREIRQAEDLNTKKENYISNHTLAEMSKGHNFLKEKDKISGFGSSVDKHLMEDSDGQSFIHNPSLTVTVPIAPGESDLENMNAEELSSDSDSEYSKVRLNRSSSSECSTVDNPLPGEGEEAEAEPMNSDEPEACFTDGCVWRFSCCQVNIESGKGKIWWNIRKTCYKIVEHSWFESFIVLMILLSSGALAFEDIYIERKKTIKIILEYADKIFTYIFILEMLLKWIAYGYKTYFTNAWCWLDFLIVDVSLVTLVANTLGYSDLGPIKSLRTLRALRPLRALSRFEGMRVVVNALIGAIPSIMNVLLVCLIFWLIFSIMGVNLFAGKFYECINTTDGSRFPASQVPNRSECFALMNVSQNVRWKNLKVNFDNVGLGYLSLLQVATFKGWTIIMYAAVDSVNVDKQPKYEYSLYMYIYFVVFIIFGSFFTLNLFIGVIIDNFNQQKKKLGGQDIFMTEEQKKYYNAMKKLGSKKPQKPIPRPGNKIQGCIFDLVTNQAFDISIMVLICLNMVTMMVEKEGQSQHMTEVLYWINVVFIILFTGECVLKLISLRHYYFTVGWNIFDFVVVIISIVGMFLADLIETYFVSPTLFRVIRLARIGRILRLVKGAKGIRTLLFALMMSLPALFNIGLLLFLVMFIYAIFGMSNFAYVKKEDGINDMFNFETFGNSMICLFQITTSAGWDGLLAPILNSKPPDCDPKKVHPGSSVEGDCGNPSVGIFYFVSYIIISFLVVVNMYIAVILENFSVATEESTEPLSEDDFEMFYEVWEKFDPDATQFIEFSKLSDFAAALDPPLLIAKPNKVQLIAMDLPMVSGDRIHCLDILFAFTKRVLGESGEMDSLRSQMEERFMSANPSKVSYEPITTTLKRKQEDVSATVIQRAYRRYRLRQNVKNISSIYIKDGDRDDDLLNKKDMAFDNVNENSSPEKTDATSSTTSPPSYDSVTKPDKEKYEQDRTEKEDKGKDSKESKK

[10] = molecular target: Voltage-gated inwardly rectifying potassium channel KCNH2 (Homo sapiens, UniProt Q12809); assay: Inhibition of human ERG
Voltage-gated inwardly rectifying potassium channel KCNH2, sequence (Q12809 whole entry): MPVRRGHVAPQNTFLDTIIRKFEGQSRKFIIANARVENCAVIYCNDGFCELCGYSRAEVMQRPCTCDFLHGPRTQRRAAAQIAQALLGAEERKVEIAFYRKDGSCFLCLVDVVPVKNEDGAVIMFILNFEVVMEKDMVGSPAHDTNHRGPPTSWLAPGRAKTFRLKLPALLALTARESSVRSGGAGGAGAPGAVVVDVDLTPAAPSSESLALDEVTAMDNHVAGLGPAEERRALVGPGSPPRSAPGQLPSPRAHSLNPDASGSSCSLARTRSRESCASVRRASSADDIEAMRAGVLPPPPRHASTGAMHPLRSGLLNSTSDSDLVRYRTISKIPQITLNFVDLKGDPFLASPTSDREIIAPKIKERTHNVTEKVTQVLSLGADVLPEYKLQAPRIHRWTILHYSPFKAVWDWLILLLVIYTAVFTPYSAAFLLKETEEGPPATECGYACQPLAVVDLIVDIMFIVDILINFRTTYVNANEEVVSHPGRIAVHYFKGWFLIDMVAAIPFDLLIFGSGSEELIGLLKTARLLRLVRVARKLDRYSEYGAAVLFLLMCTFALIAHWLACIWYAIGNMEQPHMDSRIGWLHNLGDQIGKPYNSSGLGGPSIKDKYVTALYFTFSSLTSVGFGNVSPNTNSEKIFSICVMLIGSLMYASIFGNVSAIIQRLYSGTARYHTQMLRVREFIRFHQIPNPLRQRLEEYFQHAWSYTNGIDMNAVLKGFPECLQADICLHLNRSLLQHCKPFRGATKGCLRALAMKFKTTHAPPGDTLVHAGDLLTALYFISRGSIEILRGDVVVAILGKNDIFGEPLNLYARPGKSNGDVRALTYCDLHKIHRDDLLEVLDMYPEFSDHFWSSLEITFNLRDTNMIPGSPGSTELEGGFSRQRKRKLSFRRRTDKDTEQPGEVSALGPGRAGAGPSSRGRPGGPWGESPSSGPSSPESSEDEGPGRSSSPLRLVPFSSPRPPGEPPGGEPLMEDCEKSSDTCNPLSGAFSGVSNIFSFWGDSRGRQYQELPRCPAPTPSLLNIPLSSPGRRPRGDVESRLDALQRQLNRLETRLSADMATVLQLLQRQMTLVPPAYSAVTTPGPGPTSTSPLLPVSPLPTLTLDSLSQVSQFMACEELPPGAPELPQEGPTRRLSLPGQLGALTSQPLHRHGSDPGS

[11] = Cmax in Sprague-Dawley rat at 10 umol/kg, po; type: ADME, organism-based; design: dose 10 umol/kg, route oral; conditions: in vivo
[12] = Solubility of the compound; type: physicochemical
[13] = Intrinsic clearance in human liver microsomes; type: ADME, Microsome
[14] = Half life in Sprague-Dawley rat at 10 umol/kg, po; type: ADME, organism-based; conditions: in vivo
[15] = Intrinsic clearance in rat liver microsomes; type: ADME, Microsome

Cc1onc(-c2c(Cl)cccc2Cl)c1NC(=O)OCc1c(F)cccc1Cl
Tmax [1]: 19.8 min
Vd [2]: 3 L/kg
AUC/dose [3]: 0.73 kg·h/L
clearance [4]: 45 mL/min/kg
AUC/dose [5]: 0.001 kg·h/L
IC50 [6]: 5500 nM
half-life [7]: 84 min
bioavailability [8]: 0.3%
IC50 [9]: 28.2 nM
IC50 [10]: > 26300 nM
Cmax [11]: 7 nM
solubility [12]: < 1 µM

Cc1onc(-c2c(Cl)cccc2Cl)c1NC(=O)OCc1ccccc1Cl
IC50 [6]: 8710 nM
IC50 [9]: 24 nM

Cc1onc(-c2c(Cl)cccc2Cl)c1NC(=O)OCc1cc(Cl)ccc1Cl
IC50 [6]: 2630 nM
IC50 [9]: 138 nM

Cc1onc(-c2c(Cl)cccc2Cl)c1NC(=O)OCc1cccc(N(C)C)c1
IC50 [6]: > 25700 nM
IC50 [9]: 151 nM

Cc1onc(-c2c(Cl)cccc2Cl)c1NC(=O)OCc1ccc(OC(C)C)nc1
IC50 [6]: 8710 nM
IC50 [9]: 22.9 nM

Cc1onc(-c2c(Cl)cccc2Cl)c1NC(=O)OCc1ccc(OC2CCCC2)nc1
IC50 [6]: 1350 nM
IC50 [9]: 28.8 nM

Cc1onc(-c2c(Cl)cccc2Cl)c1N(C)C(=O)OCc1ccc(OC(C)C)nc1
IC50 [6]: > 28800 nM
IC50 [9]: 224 nM

Cc1onc(-c2c(Cl)cccc2Cl)c1N(C)C(=O)OCc1c(F)cccc1Cl
IC50 [6]: > 33100 nM
IC50 [9]: 302 nM

CCc1onc(-c2c(Cl)cccc2Cl)c1NC(=O)OCc1c(F)cccc1Cl
IC50 [6]: 7240 nM
IC50 [9]: 9.33 nM

COCc1onc(-c2c(Cl)cccc2Cl)c1NC(=O)OCc1ccccc1Cl
IC50 [6]: > 28200 nM
IC50 [9]: 331 nM

O=C(Nc1conc1-c1c(Cl)cccc1Cl)OCc1c(F)cccc1Cl
IC50 [9]: 12600 nM

Cc1onc(-c2c(F)cccc2Cl)c1NC(=O)OCc1c(F)cccc1Cl
IC50 [6]: > 15800 nM
IC50 [9]: 72.4 nM

Cc1cccc(C)c1-c1noc(C)c1NC(=O)OCc1c(F)cccc1Cl
IC50 [6]: 7760 nM
IC50 [9]: 10.5 nM

Cc1onc(-c2c(Cl)cccc2Cl)c1NC(=O)NCc1c(F)cccc1Cl
IC50 [6]: 8510 nM
IC50 [9]: 162 nM

Cc1cccc(C)c1-c1noc(C)c1NC(=O)NCc1c(F)cccc1Cl
IC50 [6]: > 10500 nM
IC50 [9]: 38 nM

Cc1onc(-c2c(Cl)cccc2Cl)c1N(C)C(=O)NCc1ccc(OC2CCOCC2)nc1
IC50 [6]: 5890 nM
IC50 [9]: 170 nM

Cc1onc(-c2ccccc2Cl)c1N(C)C(=O)NCc1ccc(OC2CCOCC2)nc1
IC50 [6]: > 33100 nM
IC50 [9]: 3630 nM

Cc1cccc(C)c1-c1noc(C)c1N(C)C(=O)NCc1ccc(OC2CCOCC2)nc1
IC50 [6]: > 33100 nM
IC50 [9]: 4470 nM

Cc1cccc(C)c1-c1noc(C)c1NC(=O)NCc1ccc(OC(C)C)nc1
IC50 [6]: 20000 nM
IC50 [9]: 209 nM

Cc1onc(-c2c(Cl)cccc2Cl)c1NC(=O)NCc1ccc(-n2cccn2)cc1
IC50 [6]: > 33100 nM
IC50 [9]: 263 nM

Cc1cccc(C)c1-c1noc(C)c1NC(=O)NCc1ccc(-n2cccn2)cc1
IC50 [6]: > 33100 nM
IC50 [9]: 1170 nM

Cc1onc(-c2c(Cl)cncc2Cl)c1NC(=O)NCc1ccc(OC(C)C)nc1
IC50 [6]: > 33100 nM
IC50 [9]: 12600 nM

Cc1onc(-c2c(Cl)cccc2Cl)c1CC(=O)NCc1ccc(OC(C)C)nc1
IC50 [6]: 4680 nM
IC50 [9]: 126 nM

Cc1onc(-c2c(Cl)cccc2Cl)c1CC(=O)NCc1ccc(OCC(F)(F)F)nc1
microsomal CLint [13]: 116 µL/min/mg
half-life [14]: 228 min
Tmax [1]: 18 min
Vd [2]: 1.6 L/kg
AUC/dose [3]: 0.46 kg·h/L
clearance [4]: 36 mL/min/kg
AUC/dose [5]: 0.12 kg·h/L
IC50 [6]: > 33100 nM
microsomal CLint [15]: 64 µL/min/mg
half-life [7]: 36 min
bioavailability [8]: 19%
IC50 [9]: 178 nM
IC50 [10]: > 26300 nM
Cmax [11]: 400 nM
solubility [12]: 36 µM (≈ 17.1 µg/mL)

Cc1cccc(C)c1-c1noc(C)c1CC(=O)NCc1ccc(OCC(F)(F)F)nc1
IC50 [6]: > 33100 nM
IC50 [9]: 1230 nM

Cc1onc(-c2c(Cl)cccc2Cl)c1CC(=O)NCc1ccc(-n2cccn2)cc1
IC50 [6]: > 33100 nM
IC50 [9]: 851 nM

Cc1cccc(C)c1-c1noc(C)c1CC(=O)NCc1cccc(OCCOCC(F)(F)F)n1
IC50 [6]: 12000 nM
IC50 [9]: 58.9 nM

— ChEMBL document CHEMBL1795246, “Phenyl isoxazole voltage-gated sodium channel blockers: structure and activity relationship” (Bioorg Med Chem Lett, 2011)
